Test results published in patent US10759831B2, “Peptide compound, production method therefor, and use thereof” (iNtRON Biotechnology, Inc., priority 2014, dated 2020).
Where two headings read alike, the source gives them in different places.

Assays:
[1] = system: colon cancer cell line HCT116; assay: SRB cell viability assay, colon cancer cell line HCT116; type: cell-based; conditions: Homo sapiens, HCT-116
Protocol: (§1) Regarding a lung cancer cell line A549 (Korean Cell line Bank), a colon cancer cell line HCT116 (ATCC), a stomach cancer cell line SNU638 (Korean Cell Line Bank), a liver cancer cell line SK-HEP-1 (Korean Cell line Bank), and a breast cancer cell line MDA-MB-231 (Korean Cell line Bank), a sulforhodamine B (SRB) assay which is a method of measuring cell viability was used for measuring apoptosis effects of Asperphenin.
(§2) In detail, 190 μl of a cell suspension at a concentration of 3.5×10^4 cells/ml was inoculated in each well of a 96-well microplate. 0.8 μM, 4 μM, 20 μM, or 100 μM of Asperphenin was added to the cell culture medium, and cultured at a temperature of 37° C. for 72 hours under the condition of 5% CO2. After incubation, 50 μl of 50% (v/v) trichloroacetic acid solution (Sigma Aldrich) was added to each well, and then, incubated at a temperature of 4° C. for 30 minutes, to thereby fix the cells thereto. The fixed cells were washed with water five times, and then, dried in the air.
(§3) Next, 80 μl of a 0.4% (w/v) SRB aqueous solution (Sigma Aldrich) containing 1% (v/v) acetic acid (DUKSAN) was added to each well, incubated at room temperature for 1 hour to stain cells therein, and the stained cells washed with water and dried. The cells were dissolved by adding 200 μl of 10 mM Tris (pH 10.0) (Sigma Aldrich) to each well, and then, the number of living cells was calculated by measuring the absorbance thereof at 515 nm. The concentration of the compound inhibiting cell growth to 50% based on the number of the living cells, i.e., 50% inhibition concentration (IC50) was calculated, and the results are shown in Table 3. Here, as a positive control, etoposide (Sigma Aldrich) was used.
From the colon cancer cell lines HCT116 (ATCC), HCT15 (Korean Cell Line Bank), LS174T (Korean Cell Line Bank), RKO(ATCC), and SW480(ATCC), cell growth inhibition concentrations (IC50, μM) were calculated as described in Example 2-1, and the results are shown in Table 4. Here, as a positive control, paclitaxel (Sigma Aldrich) was used.

[2] = system: colon cancer cell line RKO; assay: SRB cell viability assay, colon cancer cell line RKO; type: cell-based; conditions: Homo sapiens, read-out: Growth inhibition value of cancer cell (IC50)
Protocol: as §2
(§4) Next, 80 μl of a 0.4% (w/v) SRB aqueous solution (Sigma Aldrich) containing 1% (v/v) acetic acid (DUKSAN) was added to each well, incubated at room temperature for 1 hour to stain cells therein, and the stained cells washed with water and dried. The cells were dissolved by adding 200 μl of 10 mM Tris (pH 10.0) (Sigma Aldrich) to each well, and then, the number of living cells was calculated by measuring the absorbance thereof at 515 nm. […]
(§5) From the colon cancer cell lines HCT116 (ATCC), HCT15 (Korean Cell Line Bank), LS174T (Korean Cell Line Bank), RKO(ATCC), and SW480(ATCC), cell growth inhibition concentrations (IC50, μM) were calculated as described in Example 2-1, and the results are shown in Table 4. […]

[3] = system: colon cancer cell line LS174T; assay: SRB cell viability assay, colon cancer cell line LS174T; type: cell-based; conditions: Homo sapiens, read-out: Growth inhibition value of cancer cell (IC50)
Protocol: as §2, §4, §5

[4] = system: stomach cancer cell line SNU638; assay: SRB cell viability assay, stomach cancer cell line SNU638; type: cell-based; conditions: Homo sapiens, SNU-638; SNU638, 72 hours; read-out: Cell growth inhibition concentration (IC50)
Protocol: as §1, §2, §3

[5] = system: cell cycle-related proteins in RKO cells; assay: Immunoblotting of cell cycle-related proteins; type: cell-based, human
Protocol: As described in Example 2-3, cells were obtained in a way that Asperphenin B at the concentration of 0.625 μM, 1.25 μM, 2.5 μM, 5 μM, or 10 μM was added to the RKO cells, and then, cultured for 48 hours. However, cells were obtained in a way that Asperphenin B at the concentration of 5 μM was added to the RKO cells, and then, cultured for 0 to 48 hours. Then, proteins were obtained from the obtained cells.
Regarding the expression of the cell cycle-related proteins, anti-p-cyclin B1(Ser147) antibody (Cell Signaling Technology), anti-cyclin B1 antibody (Santa Cruz), anti-p-cdc2(Tyr15) antibody (Cell Signaling Technology), anti-cdc2 antibody (Santa Cruz), and anti-β-actin antibody (Santa Cruz) were used to perform immunoblotting thereon.

RKO cells [6] = assay: ROS production, DCFH-DA flow cytometry; type: cell-based, human; conditions: 24 hours
Protocol: In detail, as described in Example 2-3, Asperphenin B at the concentration of 2.5 μM, 5 μM, or 10 μM wad added to the RKO cells. Cells were collected after the RKO cells were cultured for 24 hours. In addition, a cell group in which 5 mM of N-acetylcysteine (NAC) (Sigma Aldrich), which is an antioxidant, was added to 5 μM and […] of Asperphenin B was prepared as a comparative group, whereas a cell group in which none of Asperphenin B and NAC was contained as a control.
Afterwards, 2′,7′-dichlorofluorescin diacetate (DCFH-DA) (Sigma Aldrich) having a final concentration of 20 μM was added to the cell culture medium, and then, cultured at a temperature of 37° C. for 30 minutes under the condition of 5% CO2. Cells attached to the cell medium and cells not attached to the cell medium were all collected, washed with cold PBS twice, and then, suspended again in 1 ml of PBS to measure intensity of 2′,7′-dichlorofluorescin (DCF) by using a BD FACSCalibur flow cytrometer (manufactured by BD Biosciences).

[7] = system: colon cancer cell line HCT15; assay: SRB cell viability assay, colon cancer cell line HCT15; type: cell-based; conditions: Homo sapiens, HCT-15, read-out: Growth inhibition value of cancer cell (IC50)
Protocol: as §2, §4, §5

[8] = system: lung cancer cell line A549; assay: SRB cell viability assay, lung cancer cell line A549; type: cell-based; conditions: Homo sapiens; A549, 72 hours; read-out: Cell growth inhibition concentration (IC50)
Protocol: as §1, §2, §3

[9] = system: colon cancer cell line SW480; assay: SRB cell viability assay, colon cancer cell line SW480; type: cell-based; conditions: Homo sapiens, read-out: Growth inhibition value of cancer cell (IC50)
Protocol: as §2, §4, §5

RKO cells [10] = assay: Annexin V-FITC/PI apoptosis measurement by flow cytometry; type: cell-based, human; conditions: 48 hours, 0.625-10 μM, FIG. 4
Protocol: The process of apoptosis in the cell line RKO by Asperphenin B was confirmed using a Annexin V-FITC apoptosis measuring kit (manufactured by D Pharmingen).
As described in Example 2-3, Asperphenin B at the concentration of 0.625 μM, 1.25 μM, 2.5 μM, 5 μM, or 10 μM was added to the RKO cells, cultured for 48 hours to obtain cells. 300 μl of 1× binding buffer was added to the obtained cells, and well mixed together. Then, 5 μl of Annexin V and 5 μl of PI were added to 100 μl of the cell mixture, and allowed to react at room temperature for 15 minutes in the shaded stated. 400 μl of 1× binding buffer was added to the reactants, a FACSCalibur flow cytometer (BD FACSCalibur, BD Biosciences) was used to analyze the cell apoptosis. Based on the flow cytometry results, ratios of cells that were not stained (i.e., living cells), cells stained with annexin V (i.e., cells apoptosized at the early state), cells stained with both PI and annexin V (i.e., cells apoptosized at the late state or cells necrotized), or cells stained with PI only (i.e., cells necrotized) were calculated. As a negative control, cells to which Asperphenin B was not added were used.

CCCCCCCCC[C@@H](O)CC(=O)N[C@@H](CC(N)=O)C(=O)N[C@@H](CCC(N)=O)C(=O)N[C@H](CC(=O)c1cc(C)cc(O)c1C(=O)c1c(O)cccc1O)CC(C)C [Asperphenin B]
IC50 ([1]; HCT116, 72 hours, Table 3, read-out: Cell growth inhibition concentration (IC50)): 2.6 µM
IC50 ([1]; HCT116, Table 4, read-out: Growth inhibition value of cancer cell (IC50)): 4.05 µM
IC50 [2]: 1170 nM
IC50 [3]: 1840 nM
IC50 [4]: 11.7 µM
Expression of p-cdc2 (Tyr15) protein ([5]; 5 μM, 0 to 48 hours, FIG. 5B): increased in time-dependent manner
Expression of p-cyclin B1 (Ser147) ([5]; 5 μM, 0 to 48 hours, FIG. 5B): highest at about 24 hours
Expression of non-active p-cyclin B1 (Ser147) protein ([5]; 48 hours, 2.5 μM, FIG. 5A): increased
Expression of p-cyclin B1 (Ser147) protein and cyclin B1 protein ([5]; 48 hours, 5 μM and 10 μM, FIG. 5A): decreased
Expression of non-active p-cdc2 (Tyr15) protein ([5]; 48 hours, 0.625-10 μM, FIG. 5A): increased in a concentration-dependent manner
Production of ROS relative to the control (RKO cells [6]): about 2.4 times
Ratio of cells producing ROS (RKO cells [6]; 2.5 μM): 8.14%
Ratio of cells producing ROS (RKO cells [6]; 5 μM): 13.86%
Ratio of cells producing ROS (RKO cells [6]; 5 μM Asperphenin B + 5 mM NAC): 1.41%
Ratio of cells producing ROS (RKO cells [6]; 10 μM): 14.26%
Ratio of cells producing ROS (RKO cells [6]; 10 μM Asperphenin B + 5 mM NAC): 2.55%
IC50 [7]: 7.2 µM
IC50 [8]: 41.8 µM
IC50 [9]: 31.4 µM
Ratio of necrotic cells compared to control (RKO cells [10]): increased
Ratios of cells of early apoptosis and cells of late apoptosis or necrosis compared to control (RKO cells [10]): increased
